Experimental data published in ChEMBL document CHEMBL1201862, “PubChem BioAssay data set” (2004).
Several values for one entry are separate records, joined by “and”; a condition that tells them apart may be missing. Identical values can stand only once.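 Values below derive from 48-hour exposures of cells grown in 96-well plates, with endpoints linearly interpolated between the two concentrations bracketing the appropriate inhibition level. At the GI50, growth is halved.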 Activity calls are given as the source filed them. Cut-off read from the data, not from the text of the source: active = GI50 up to about 1.1 µM and inactive = higher. Peptide text beside a SMILES is read from it. * marks the point of attachment. Boc = CC(C)(C)OC(=O)*; OBn = c1ccc(CO*)cc1; Bn = c1ccc(C*)cc1

Legend:
Test in all cases: DTP human tumour cell line panel, 48 h
A498 = system: A498
BT-549 = system: BT-549
HCT-15 = system: HCT-15
HOP-92 = system: HOP-92
K562 = system: K562
KM12 = system: KM12
LOX IMVI = system: LOX IMVI
MCF7 = system: MCF7
MDA-MB-231 = system: MDA-MB-231
NCI-H226 = system: NCI-H226
OVCAR-5 = system: OVCAR-5
PC-3 = system: PC-3
RXF 393 = system: RXF 393
SK-MEL-28 = system: SK-MEL-28
SNB-19 = system: SNB-19
SR = system: SR
UACC-62 = system: UACC-62
HCT-116 = system: HCT-116
IGROV-1 = system: IGROV-1
T47D = system: T47D

Structure (SMILES)	GI50 (A498)	GI50 (BT-549)	GI50 (HCT-15) [µM]	GI50 (HOP-92)	GI50 (K562)	GI50 (KM12)	GI50 (LOX IMVI)	GI50 (MCF7)	GI50 (MDA-MB-231)	GI50 (NCI-H226)	GI50 (OVCAR-5)	GI50 (PC-3)	GI50 (RXF 393)	GI50 (SK-MEL-28)	GI50 (SNB-19)	GI50 (SR)	GI50 (UACC-62)	GI50 (HCT-116)	GI50 (IGROV-1)	GI50 (T47D)
C[C@H]1C/C=C/[C@H]2[C@@H]3O[C@]3(C)[C@@H](C)[C@H]3[C@H](Cc4ccccc4)NC(=O)[C@]32OC(=O)O/C=C/[C@@](C)(O)C1=O [CYTOCHALASIN E]	0.0181 µM (active)	0.0392 µM (active)	0.0834	0.0239 µM (active)	1.72 µM (inactive)	17.5 µM (inactive)	0.0128 µM (active)	0.0292 µM (active)	< 0.01 µM (active)	0.0333 µM (active)	11.3 µM (inactive)	0.0141 µM (active)	0.0111 µM (active)	0.2 µM (active)	0.0604 µM (active)	0.065 µM (active)	0.1 µM (active)			
COCCN(CCOC)C(=O)COc1c2cc(C(C)(C)C)cc1Cc1cc(C(C)(C)C)cc(c1OCC(=O)N(CCOC)CCOC)Cc1cc(C(C)(C)C)cc(c1OCC(=O)N(CCOC)CCOC)Cc1cc(C(C)(C)C)cc(c1OCC(=O)N(CCOC)CCOC)Cc1cc(C(C)(C)C)cc(c1OCC(=O)N(CCOC)CCOC)C2	3.17 µM (inactive)		2.81		0.491 µM (active)	0.518 µM (active)	1.73 µM (inactive)	1.3 µM (inactive)	1.99 µM (inactive)	1.28 µM (inactive)	5.55 µM (inactive)	0.659 µM (active)	1.09 µM (active)	3.33 µM (inactive)	1.34 µM (inactive)	0.352 µM (active)	1.18 µM (inactive)	0.618 µM (active)	1.18 µM (inactive)	1.27 µM (inactive)
CC(C)CC(NC(=O)C(CCC(=O)OCc1ccccc1)NC(=O)OC(C)(C)C)C(=O)NC(COCc1ccccc1)C(=O)NC(Cc1ccccc1)C(=O)O (stereo not drawn) (Boc-E(OBn)LS(Bn)F-OH; configuration not given here)	> 100 µM (inactive)	> 100 µM (inactive)	> 100	> 100 µM (inactive)	> 100 µM (inactive)	> 100 µM (inactive)		> 100 µM (inactive)	> 100 µM (inactive)	> 100 µM (inactive)	> 100 µM (inactive)	> 100 µM (inactive)	> 100 µM (inactive)	> 100 µM (inactive)	> 100 µM (inactive)	> 100 µM (inactive)	> 100 µM (inactive)	> 100 µM (inactive)	> 100 µM (inactive)	
CCOC(=O)C1=C(Cl)c2cccnc2C1=O	> 100 µM (inactive)	45.4 µM (inactive)	53.7	> 100 µM (inactive)	54.7 µM (inactive)	> 100 µM (inactive)	23.7 µM (inactive)	38.5 µM (inactive)	> 100 µM (inactive)	> 100 µM (inactive)		> 100 µM (inactive)	> 100 µM (inactive)	> 100 µM (inactive)	53 µM (inactive)	11.4 µM (inactive)	> 100 µM (inactive)	27.4 µM (inactive)	52.8 µM (inactive)	
CC1OC(OC2C(OC(=O)[C@]34CCC(C)(C)C[C@H]3C3=CC[C@@H]5[C@@]6(C)CC[C@H](OC7OC(C(=O)O)C(O)C(O)C7O)C(C)(C)[C@@H]6CC[C@@]5(C)[C@]3(C)CC4)OCC(O)C2O)C(O)C(O)C1OC1OCC(O)C(O)C1O (stereo partly drawn)	17.8 µM (inactive) and 18.6 µM (inactive)		> 100	30.6 µM (inactive) and 20.5 µM (inactive)			66.8 µM (inactive)	50.1 µM (inactive) and 41.5 µM (inactive)	11 µM (inactive) and 21.5 µM (inactive)	43.6 µM (inactive) and 43.9 µM (inactive)	48.2 µM (inactive) and 31 µM (inactive)		> 100 µM (inactive) and 70.1 µM (inactive)	18.1 µM (inactive) and 24 µM (inactive)			39.4 µM (inactive) and 28 µM (inactive)	39.9 µM (inactive) and 45.9 µM (inactive)	> 100 µM (inactive)	34.8 µM (inactive) and 56.9 µM (inactive)
O=C1OCC(O)=C1C(c1ccc(Cl)cc1)c1cc2c(cc1O)OCO2 (stereo not drawn)	> 100 µM (inactive)	> 100 µM (inactive)	> 100	> 100 µM (inactive)	> 100 µM (inactive)	> 100 µM (inactive)	> 100 µM (inactive)	> 100 µM (inactive)	> 100 µM (inactive)	> 100 µM (inactive)	> 100 µM (inactive)	> 100 µM (inactive)	> 100 µM (inactive)	> 100 µM (inactive)	> 100 µM (inactive)	> 100 µM (inactive)	> 100 µM (inactive)	> 100 µM (inactive)	> 100 µM (inactive)	
CC12CCC(CC(=O)/C1=C(/Br)I)C2(C)C (stereo not drawn)	19.3 µM (inactive)		10.9	17.3 µM (inactive)	11.2 µM (inactive)	17.9 µM (inactive)	0.0789 µM (active)		5.57 µM (inactive)	13.8 µM (inactive)	2.02 µM (inactive)	11.1 µM (inactive)	4.6 µM (inactive)	16.2 µM (inactive)	15.3 µM (inactive)	15.8 µM (inactive)	14.5 µM (inactive)	12.4 µM (inactive)	16.9 µM (inactive)	21.7 µM (inactive)
Cc1ccc(S(=O)(=O)NC(=O)Nc2cc(Cl)c(S(N)(=O)=O)cc2S(N)(=O)=O)cc1		> 100 µM (inactive)	> 100	> 100 µM (inactive)	> 100 µM (inactive)	> 100 µM (inactive)	> 100 µM (inactive)	> 100 µM (inactive)	> 100 µM (inactive)	> 100 µM (inactive)	> 100 µM (inactive)		> 100 µM (inactive)	> 100 µM (inactive)	> 100 µM (inactive)		> 100 µM (inactive)	> 100 µM (inactive)	> 100 µM (inactive)	
CCC(=O)N/N=C(\C=C\c1cccc(O)c1)c1sc(Nc2ccc(C)cc2[N+](=O)[O-])nc1C	> 100 µM (inactive)		81.8	13.7 µM (inactive)	> 100 µM (inactive)	> 100 µM (inactive)	58.6 µM (inactive)			> 100 µM (inactive)	> 100 µM (inactive)		10.8 µM (inactive)	> 100 µM (inactive)	> 100 µM (inactive)	73.8 µM (inactive)	> 100 µM (inactive)	> 100 µM (inactive)	> 100 µM (inactive)	
O=C(NC/C(Cl)=C/Cl)Nc1cccc2c1CCCC2	65.8 µM (inactive)		> 100	55.7 µM (inactive)		> 100 µM (inactive)	> 100 µM (inactive)	> 100 µM (inactive)	> 100 µM (inactive)	> 100 µM (inactive)	> 100 µM (inactive)	74.5 µM (inactive)	> 100 µM (inactive)	> 100 µM (inactive)	> 100 µM (inactive)	35.9 µM (inactive)	> 100 µM (inactive)	> 100 µM (inactive)	> 100 µM (inactive)	97.9 µM (inactive)
O=C(O)C1(CC(CCCN2CCCCC2)c2ccccc2)CCCC1 (stereo not drawn)	> 100 µM (inactive)		> 100	> 100 µM (inactive)	> 100 µM (inactive)	> 100 µM (inactive)	> 100 µM (inactive)	> 100 µM (inactive)	> 100 µM (inactive)	> 100 µM (inactive)	> 100 µM (inactive)	> 100 µM (inactive)	> 100 µM (inactive)	> 100 µM (inactive)	> 100 µM (inactive)	> 100 µM (inactive)	> 100 µM (inactive)	> 100 µM (inactive)	> 100 µM (inactive)	> 100 µM (inactive)
CCCC(=O)NC(NC1CCCCC1)(C(=O)OCC)C(F)(F)F (stereo not drawn)			> 100	> 100 µM (inactive)	> 100 µM (inactive)	> 100 µM (inactive)	> 100 µM (inactive)	> 100 µM (inactive)		> 100 µM (inactive)	> 100 µM (inactive)	> 100 µM (inactive)	> 100 µM (inactive)	> 100 µM (inactive)	> 100 µM (inactive)	> 100 µM (inactive)		> 100 µM (inactive)	> 100 µM (inactive)	> 100 µM (inactive)
CC(=O)NC(C)(C)C1CCC(C)CC1 (stereo not drawn)	> 100 µM (inactive)	> 100 µM (inactive)	> 100		> 100 µM (inactive)	> 100 µM (inactive)	> 100 µM (inactive)	> 100 µM (inactive)	> 100 µM (inactive)	> 100 µM (inactive)	> 100 µM (inactive)	> 100 µM (inactive)	> 100 µM (inactive)	> 100 µM (inactive)	> 100 µM (inactive)	> 100 µM (inactive)	> 100 µM (inactive)	> 100 µM (inactive)	> 100 µM (inactive)	
CC1(C)N=c2c(ncn2-c2ccccc2)=C(C(N)=O)N1	> 100 µM (inactive)		> 100		> 100 µM (inactive)	> 100 µM (inactive)	> 100 µM (inactive)	> 100 µM (inactive)	> 100 µM (inactive)	> 100 µM (inactive)	> 100 µM (inactive)	> 100 µM (inactive)	> 100 µM (inactive)	> 100 µM (inactive)	> 100 µM (inactive)	> 100 µM (inactive)	> 100 µM (inactive)	> 100 µM (inactive)	> 100 µM (inactive)	> 100 µM (inactive)
CCCNC(=O)CCC(C)C1CCC2C3C(C[C@H](OC(C)=O)[C@]12C)[C@@]1(C)CCC2(C[C@H]1C[C@H]3OC(C)=O)OOC1(CC[C@]3(C)C4C[C@H](OC(C)=O)[C@]5(C)C(C(C)CCC(=O)NCCC)CCC5C4[C@H](OC(C)=O)C[C@@H]3C1)OO2 (stereo partly drawn)		> 100 µM (inactive)	> 100		> 100 µM (inactive)	> 100 µM (inactive)	> 100 µM (inactive)	> 100 µM (inactive)	11.3 µM (inactive)	20.8 µM (inactive)	46.5 µM (inactive)	> 100 µM (inactive)	> 100 µM (inactive)	> 100 µM (inactive)	> 100 µM (inactive)	> 100 µM (inactive)		> 100 µM (inactive)	20.2 µM (inactive)	
